The test system of the first assay is Panc1005. Put plainly: cells. The following applies: Homo sapiens. It is filed as functional, cell-based.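 Also: growth inhibition of human PANC-10-05 cells, measured by a cell viability assay.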
Description: SANGER: Inhibition of human PANC-10-05 cell growth in a cell viability assay.
`Cc1ccc(-n2nc(C(C)(C)C)cc2NC(=O)Nc2ccc(OCCN3CCOCC3)c3ccccc23)cc1` [DORAMAPIMOD]: the half-maximal inhibitory concentration (IC50) was > 10 µM.

The test system of another assay is OE33. Put plainly: cells. Particulars: Homo sapiens. It is filed as functional, cell-based.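 Also: growth inhibition of human OE33 cells, measured by a cell viability assay.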
Description: SANGER: Inhibition of human OE33 cell growth in a cell viability assay.
For the molecule `Cc1ccc(-n2nc(C(C)(C)C)cc2NC(=O)Nc2ccc(OCCN3CCOCC3)c3ccccc23)cc1` [DORAMAPIMOD], the IC50 was > 10 µM.

For a further assay, the system named is Huh-7. Put plainly: cells. It is filed as functional, cell-based. The following applies: Homo sapiens.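 Also: HuH-7 cell growth inhibition, read out with a cell viability assay.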
Description: SANGER: Inhibition of human HuH-7 cell growth in a cell viability assay.
For `Cc1ccc(-n2nc(C(C)(C)C)cc2NC(=O)Nc2ccc(OCCN3CCOCC3)c3ccccc23)cc1` [DORAMAPIMOD], the IC50 is > 10 µM.

In another assay the test system is KP-4. The experiment in a line: cells. Type of assay: functional, cell-based. Particulars: Homo sapiens.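 Also: human KP-4 cells, with growth inhibition read out through a cell viability assay.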
Description: SANGER: Inhibition of human KP-4 cell growth in a cell viability assay.
Consider `Cc1ccc(-n2nc(C(C)(C)C)cc2NC(=O)Nc2ccc(OCCN3CCOCC3)c3ccccc23)cc1` [DORAMAPIMOD], for which the IC50 is > 10 µM.

In the next assay the test system is EFM-19. The experiment in a line: cells. It is filed as functional, cell-based. The following applies: Homo sapiens.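 Also: growth inhibition of human EFM-19 cells, measured in a cell viability assay.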
Description: SANGER: Inhibition of human EFM-19 cell growth in a cell viability assay.
In the case of `Cc1ccc(-n2nc(C(C)(C)C)cc2NC(=O)Nc2ccc(OCCN3CCOCC3)c3ccccc23)cc1` [DORAMAPIMOD], the IC50 is > 10 µM.

For another assay, the system named is PANC-08-13. The experiment in a line: cells. It is filed as functional, cell-based. The following applies: Homo sapiens.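 Also: cell growth inhibition, measured with a cell viability assay.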
Description: SANGER: Inhibition of human PANC-08-13 cell growth in a cell viability assay.
In the case of `Cc1ccc(-n2nc(C(C)(C)C)cc2NC(=O)Nc2ccc(OCCN3CCOCC3)c3ccccc23)cc1` [DORAMAPIMOD], the IC50 was > 10 µM.

The test system of a further assay is SK-MEL-28. Put plainly: cells. It is filed as functional, cell-based. Particulars: Homo sapiens.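 Also: growth inhibition of human SK-MEL-28 cells, read out with a cell viability assay.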
Description: SANGER: Inhibition of human SK-MEL-28 cell growth in a cell viability assay.
`Cc1ccc(-n2nc(C(C)(C)C)cc2NC(=O)Nc2ccc(OCCN3CCOCC3)c3ccccc23)cc1` [DORAMAPIMOD]: the IC50 was > 10 µM.

For a further assay, the system named is 769-P. Put plainly: cells. It is filed as functional, cell-based. The following applies: Homo sapiens.
Description: SANGER: Inhibition of human 769-P cell growth in a cell viability assay.
For `Cc1ccc(-n2nc(C(C)(C)C)cc2NC(=O)Nc2ccc(OCCN3CCOCC3)c3ccccc23)cc1` [DORAMAPIMOD], the IC50 was > 10 µM.

The subject of another assay is NCI-H441. The experiment in a line: cells. It is filed as functional, cell-based. Particulars: Homo sapiens.
Description: SANGER: Inhibition of human NCI-H441 cell growth in a cell viability assay.
With `Cc1ccc(-n2nc(C(C)(C)C)cc2NC(=O)Nc2ccc(OCCN3CCOCC3)c3ccccc23)cc1` [DORAMAPIMOD], the IC50 was > 10 µM.

The next assay has as its system 647-V. The experiment in a line: cells. Type of assay: functional, cell-based. The following applies: Homo sapiens.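 Also: growth inhibition of 647-V cells, read out with a cell viability assay.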
Description: SANGER: Inhibition of human 647-V cell growth in a cell viability assay.
Take `Cc1ccc(-n2nc(C(C)(C)C)cc2NC(=O)Nc2ccc(OCCN3CCOCC3)c3ccccc23)cc1` [DORAMAPIMOD]: the IC50 was > 10 µM.

The next assay relates to G-401. Put plainly: cells. It is filed as functional, cell-based. Particulars: Homo sapiens.
Description: SANGER: Inhibition of human G-401 cell growth in a cell viability assay.
For the molecule `Cc1ccc(-n2nc(C(C)(C)C)cc2NC(=O)Nc2ccc(OCCN3CCOCC3)c3ccccc23)cc1` [DORAMAPIMOD], the IC50 is > 10 µM.

In a further assay the test system is NCI-H1623. The experiment in a line: cells. Particulars: Homo sapiens. Type of assay: functional, cell-based.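 Also: cell viability assay used as the read-out for growth inhibition of NCI-H1623 cells.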
Description: SANGER: Inhibition of human NCI-H1623 cell growth in a cell viability assay.
Consider `Cc1ccc(-n2nc(C(C)(C)C)cc2NC(=O)Nc2ccc(OCCN3CCOCC3)c3ccccc23)cc1` [DORAMAPIMOD], for which the IC50 was > 10 µM.

The next assay concerns MHH-ES-1. The experiment in a line: cells. Type of assay: functional, cell-based. Particulars: Homo sapiens.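 Also: cell growth inhibition measured by a cell viability assay.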
Description: SANGER: Inhibition of human MHH-ES-1 cell growth in a cell viability assay.
Take `Cc1ccc(-n2nc(C(C)(C)C)cc2NC(=O)Nc2ccc(OCCN3CCOCC3)c3ccccc23)cc1` [DORAMAPIMOD]: the IC50 is > 10 µM.

The next assay has as its system 8305C. Put plainly: cells. Type of assay: functional, cell-based. Particulars: Homo sapiens.
Description: SANGER: Inhibition of human 8305C cell growth in a cell viability assay.
Take `Cc1ccc(-n2nc(C(C)(C)C)cc2NC(=O)Nc2ccc(OCCN3CCOCC3)c3ccccc23)cc1` [DORAMAPIMOD]: the IC50 was > 10 µM.

A further assay has as its system BCPAP. Put plainly: cells. The following applies: Homo sapiens. Type of assay: functional, cell-based.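 Also: growth inhibition of BCPAP cells, read out in a cell viability assay.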
Description: SANGER: Inhibition of human BCPAP cell growth in a cell viability assay.
For the molecule `Cc1ccc(-n2nc(C(C)(C)C)cc2NC(=O)Nc2ccc(OCCN3CCOCC3)c3ccccc23)cc1` [DORAMAPIMOD], the IC50 was > 10 µM.

The test system of a further assay is SCC-25. Put plainly: cells. Particulars: Homo sapiens. It is filed as functional, cell-based.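 Also: growth inhibition of SCC-25 cells, measured with a cell viability assay.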
Description: SANGER: Inhibition of human SCC-25 cell growth in a cell viability assay.
As for `Cc1ccc(-n2nc(C(C)(C)C)cc2NC(=O)Nc2ccc(OCCN3CCOCC3)c3ccccc23)cc1` [DORAMAPIMOD], the IC50 was > 10 µM.

For a further assay, the system named is OVCAR-8. Put plainly: cells. It is filed as functional, cell-based. The following applies: Homo sapiens.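 Also: growth inhibition of human OVCAR-8 cells, read out by a cell viability assay.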
Description: SANGER: Inhibition of human OVCAR-8 cell growth in a cell viability assay.
`Cc1ccc(-n2nc(C(C)(C)C)cc2NC(=O)Nc2ccc(OCCN3CCOCC3)c3ccccc23)cc1` [DORAMAPIMOD]: the IC50 was > 10 µM.

A further assay concerns P12-Ichikawa. The experiment in a line: cells. It is filed as functional, cell-based. The following applies: Homo sapiens.
For the molecule `Cc1ccc(-n2nc(C(C)(C)C)cc2NC(=O)Nc2ccc(OCCN3CCOCC3)c3ccccc23)cc1` [DORAMAPIMOD], the IC50 was > 10 µM.

A further assay has as its system MeWo. Put plainly: cells. It is filed as functional, cell-based. The following applies: Homo sapiens.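 Also: growth inhibition of MeWo cells, determined by a cell viability readout.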
Description: SANGER: Inhibition of human Mewo cell growth in a cell viability assay.
With `Cc1ccc(-n2nc(C(C)(C)C)cc2NC(=O)Nc2ccc(OCCN3CCOCC3)c3ccccc23)cc1` [DORAMAPIMOD], the IC50 was > 10 µM.

A further assay relates to RO82-W-1. The experiment in a line: cells. Type of assay: functional, cell-based. Particulars: Homo sapiens.
Description: SANGER: Inhibition of human RO82-W-1 cell growth in a cell viability assay.
`Cc1ccc(-n2nc(C(C)(C)C)cc2NC(=O)Nc2ccc(OCCN3CCOCC3)c3ccccc23)cc1` [DORAMAPIMOD]: the IC50 was > 10 µM.

The next assay deals with RCM-1. Put plainly: cells. Type of assay: functional, cell-based. The following applies: Homo sapiens.
Description: SANGER: Inhibition of human RCM-1 cell growth in a cell viability assay.
In the case of `Cc1ccc(-n2nc(C(C)(C)C)cc2NC(=O)Nc2ccc(OCCN3CCOCC3)c3ccccc23)cc1` [DORAMAPIMOD], the IC50 was > 10 µM.

The subject of the next assay is DK-MG. Put plainly: cells. It is filed as functional, cell-based. The following applies: Homo sapiens.
Description: SANGER: Inhibition of human DK-MG cell growth in a cell viability assay.
With `Cc1ccc(-n2nc(C(C)(C)C)cc2NC(=O)Nc2ccc(OCCN3CCOCC3)c3ccccc23)cc1` [DORAMAPIMOD], the IC50 is > 10 µM.

The next assay has as its system NCI-H28. Put plainly: cells. Type of assay: functional, cell-based. The following applies: Homo sapiens.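 Also: growth inhibition of human NCI-H28 cells, read out as cell viability.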
Description: SANGER: Inhibition of human NCI-H28 cell growth in a cell viability assay.
Regarding `Cc1ccc(-n2nc(C(C)(C)C)cc2NC(=O)Nc2ccc(OCCN3CCOCC3)c3ccccc23)cc1` [DORAMAPIMOD], the IC50 is > 10 µM.

The next assay has as its system SAOS-2. The experiment in a line: cells. The following applies: Homo sapiens. Type of assay: functional, cell-based.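 Also: growth inhibition of human Saos-2 cells determined by a cell viability assay.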
Description: SANGER: Inhibition of human Saos-2 cell growth in a cell viability assay.
Regarding `Cc1ccc(-n2nc(C(C)(C)C)cc2NC(=O)Nc2ccc(OCCN3CCOCC3)c3ccccc23)cc1` [DORAMAPIMOD], the IC50 was > 10 µM.

The IC50 is the concentration needed to halve the response being measured.

These data come from ChEMBL document CHEMBL1201861, “Genomics of Drug Sensitity in Cancer screening data, Wellcome Trust Sanger Institute”.
